{"source": "patent US7030087B2", "about": "“Synthetic approach to designed chemical structures” (priority 1996, dated 2006)", "key": {"[1]": {"system": "P. aeruginosa", "assay": "Bactericidal activity assay", "type": "cell-based, Pseudomonas aeruginosa type 1", "outline": "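Log-phase P. aeruginosa type 1 (smooth clinical isolate) was grown in brain heart infusion broth, washed, and diluted 1:10 from about 3×10^8 CFU/ml into 0.08M citrate phosphate buffer at pH 5.6 or pH 7.0. Peptides were tested from about […] to 4.1×10^−9M, with LD50 derived from dose response by linear regression.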"}, "[2]": {"system": "EC (endothelial cells)", "assay": "EC proliferation, 3[H]thymidine incorporation assay", "type": "cell-based", "experimental": "Since the in vivo situation of tumor associated EC involves the low expression or even absence of ICAM-1, the next set of experiments aimed to study the ability to reinduce ICAM-I expression after bFBF preincubation. […] In these experiments, HUVEC were pretreated for 3 days with bFGF, subsequently PF4 was added for 3 days and, where indicated in the last 16 hours of culture 4 ng/ml TNFα was added. Human umbilical vein derived endothelial cells (HUVEC) were harvested from normal human umbilical cords by perfusion with 0.125% trypsin/EDTA as described previously. Cells were cultured in fibronectin (FN) coated tissue culture flasks in culture medium (RPMI-1640 with 20% human serum (HS), supplemented with 2 mM glutamine and 100 U/ml penicillin and 0.1 mg/ml streptomycin). Immunofluorescence using indirect PE-conjugated reagents required three separate incubations. 1×10^5 EC were fixed for 1 hour in 1% paraformaldehyde, resuspended in 20 μl appropriately diluted Mab and incubated for 1 hour on ice. Subsequently, cells were washed two times in PBS/BSA (0.1%) and incubated for another 30 minutes with biotinylated rabbit-anti-mouse Ig (Dako, Glostrup, Denmark). After another 2 washings, cells were incubated with streptavidin-phycoerythrin conjugate (Dako). Stained cells were analyzed on a FACScan flowcytometer. Data analysis was performed using PCLysys software (Becton Dickinson, Mountain View, Calif.). Statistical significance of observed differences was determined using the Student's t-test.\nEC proliferation was measured using a ^3[H]thymidine incorporation assay. EC were seeded in flatbottomed 96-well tissue culture plates (5000 cells/well) and grown for 3 days, in culture medium. In some cultures the proliferation of EC was enhanced by incubation with 10 ng/ml bFGF. During the list 6 hours of the assay, the culture was pulsed with 0.5 μCi [methyl-^3H]thymidine/well. Results are expressed as the arithmetic mean counts per minute (cpm) of triplicate cultures."}}, "data": [{"substance": "platelet factor 4 [PF4]", "values": [{"measurement": "Bactericidal Activity, % killing", "setting": "[1]; 1.2 × 10^−7 M Peptide, 5 × 105 P. aeruginosa", "result": 0, "unit": "%"}, {"measurement": "Bactericidal Activity, % killing at the effective dose", "setting": "[1]; at the Ed for the same peptide", "result": 19, "unit": "%"}, {"measurement": "Bactericidal Activity, Ed, Effective M dose", "setting": "[1]; dose at which the % in brackets was found", "result": 1.5, "unit": "µM"}, {"measurement": "(3H)-thymidine incorporation", "setting": "[2]; expt 1, 1 μg/ml, 10 ng/ml bFGF, medium 28815 ± 1007", "result": "28782 ± 815", "unit": "cpm"}, {"measurement": "(3H)-thymidine incorporation", "setting": "[2]; expt 1, 1 μg/ml, no bFGF, medium 4044 ± 206", "result": "4656 ± 456", "unit": "cpm"}, {"measurement": "(3H)-thymidine incorporation", "setting": "[2]; expt 1, 10 μg/ml, 10 ng/ml bFGF, medium 28815 ± 1007", "result": "23868 ± 402", "unit": "cpm"}, {"measurement": "(3H)-thymidine incorporation", "setting": "[2]; expt 1, 10 μg/ml, no bFGF, medium 4044 ± 206", "result": "4066 ± 351", "unit": "cpm"}, {"measurement": "(3H)-thymidine incorporation", "setting": "[2]; expt 1, 100 μg/ml, 10 ng/ml bFGF, medium 28815 ± 1007", "result": "4655 ± 421", "unit": "cpm"}, {"measurement": "(3H)-thymidine incorporation", "setting": "[2]; expt 1, 100 μg/ml, no bFGF, medium 4044 ± 206", "result": "1651 ± 172", "unit": "cpm"}, {"measurement": "(3H)-thymidine incorporation", "setting": "[2]; expt 2 (second, r19), 1 μg/ml, 10 ng/ml bFGF, medium 52808 ± 4092", "result": "43524 ± 5318", "unit": "cpm"}, {"measurement": "(3H)-thymidine incorporation", "setting": "[2]; expt 2 (second, r19), 1 μg/ml, no bFGF, medium 6780 ± 713", "result": "6171 ± 1227", "unit": "cpm"}, {"measurement": "(3H)-thymidine incorporation", "setting": "[2]; expt 2 (second, r19), 10 μg/ml, 10 ng/ml bFGF, medium 52808 ± 4092", "result": "8337 ± 704", "unit": "cpm"}, {"measurement": "(3H)-thymidine incorporation", "setting": "[2]; expt 2 (second, r19), 10 μg/ml, no bFGF, medium 6780 ± 713", "result": "3547 ± 317", "unit": "cpm"}, {"measurement": "(3H)-thymidine incorporation", "setting": "[2]; expt 2 (second, r19), 100 μg/ml, 10 ng/ml bFGF, medium 52808 ± 4092", "result": "1654 ± 375", "unit": "cpm"}, {"measurement": "(3H)-thymidine incorporation", "setting": "[2]; expt 2 (second, r19), 100 μg/ml, no bFGF, medium 6780 ± 713", "result": "947 ± 170", "unit": "cpm"}]}]}
